ChEMBL document CHEMBL4376881, “Toggling Preassembly with Single-Site Mutation Switches the Cytotoxic Mechanism of Cationic Amphipathic Peptides” (J Med Chem, 2020)
pIC50: −log10 of the molar value. The source made the active and inactive calls. No cut-off for these calls is given here.

How the values were obtained:
HeLa [1] = assay: Cytotoxicity against human HeLa cells assessed as reduction in cell viability incubated for 1 hr by MTT assay; type: functional, cell-based
[2] = Self aggregation up to 128 uM in PBS buffer by ANS fluorescent probe based aggregate incorporation assay; type: physicochemical
HeLa [3] = assay: Induction of membrane lysis in human HeLa cells assessed as loss of membrane integrity at cytotoxic IC50 level incubated for 15 mins by Propidium iodide staining based confocal laser scanning microscopy relative to control; type: functional
[4] = Drug localization in cell membrane of human HeLa cells using FITC-labeled compound at cytotoxic IC50 level incubated for 30 mins by confocal laser scanning microscopy; type: cell membranes; conditions: 0.5 h
HeLa [5] = assay: Cytotoxicity against human HeLa cells assessed as reduction in cell viability at cytotoxic IC50 in presence of 1.5 to 150 ng/mL sodium heparin incubated for 1 hr by MTT assay; type: functional, cell-based
HeLa [6] = assay: Induction of membrane lysis in human HeLa cells assessed as increase in number of enlarged outward budding vesicles at cytotoxic IC50 level incubated for 15 mins by annexin V-FITC and by propidium iodide staining; type: functional, cell-based
[7] = Selectivity index, ratio of HC10 for induction of hemolysis in human erythrocytes assessed as hemoglobin release incubated for 2 hrs by UV absorbance based method to IC50 for cytotoxicity against human K562 cells assessed as reduction in cell viability incubated for 1 hr by MTT assay
MCF7 = assay: Cytotoxicity against human MCF7 cells assessed as reduction in cell viability incubated for 1 hr by MTT assay; type: functional, cell-based; conditions: MCF7, 1 h
A549 = assay: Cytotoxicity against human A549 cells assessed as reduction in cell viability incubated for 1 hr by MTT assay; type: functional, cell-based; conditions: A549, 1 h
[8] = Selectivity index, ratio of HC10 for induction of hemolysis in human erythrocytes assessed as hemoglobin release incubated for 2 hrs by UV absorbance based method to IC50 for cytotoxicity against human A549 cells assessed as reduction in cell viability incubated for 1 hr by MTT assay
[9] = Selectivity index, ratio of HC10 for induction of hemolysis in human erythrocytes assessed as hemoglobin release incubated for 2 hrs by UV absorbance based method to IC50 for cytotoxicity against human HeLa cells assessed as reduction in cell viability incubated for 1 hr by MTT assay
HL-60 = assay: Cytotoxicity against human HL60 cells assessed as reduction in cell viability incubated for 1 hr by MTT assay; type: functional, cell-based; conditions: HL-60, 1 h
[10] = Selectivity index, ratio of HC10 for induction of hemolysis in human erythrocytes assessed as hemoglobin release incubated for 2 hrs by UV absorbance based method to IC50 for cytotoxicity against human HL60 cells assessed as reduction in cell viability incubated for 1 hr by MTT assay
[11] = Selectivity index, ratio of HC10 for induction of hemolysis in human erythrocytes assessed as hemoglobin release incubated for 2 hrs by UV absorbance based method to IC50 for cytotoxicity against human MCF7 cells assessed as reduction in cell viability incubated for 1 hr by MTT assay
[12] = Induction of hemolysis in human erythrocytes assessed as hemoglobin release incubated for 2 hrs by UV absorbance based method; type: cell-based; conditions: erythrocyte
[13] = Self aggregation at >8 uM in PBS buffer by ANS fluorescent probe based aggregate incorporation assay; type: physicochemical
[14] = Self aggregation assessed as formation of nano fibers of varying lengths at 32 uM by atomic force microscopy; type: physicochemical
K562 = assay: Cytotoxicity against human K562 cells assessed as reduction in cell viability incubated for 1 hr by MTT assay; type: functional, cell-based; conditions: K562, 1 h
HeLa [15] = assay: Suppression of mitochondrial membrane potential in human HeLa cells at cytotoxic IC50 level incubated for 15 mins by rhodamine 123 dye based flow cytometry; type: functional, cell-based
[16] = Drug localization in endoplasmic reticulum of human HeLa cells using FITC-labeled compound at cytotoxic IC50 level incubated for 30 mins by ER-tracker red dye based confocal laser scanning microscopy; type: subcellular; conditions: 0.5 h
[17] = Drug localization in lysosome of human HeLa cells using FITC-labeled compound at cytotoxic IC50 level incubated for 30 mins by Lysotracker red dye based confocal laser scanning microscopy; type: subcellular; conditions: 0.5 h
[18] = Drug localization in mitochondria of human HeLa cells using FITC-labeled compound at cytotoxic IC50 level incubated for 30 mins by Mito-tracker red dye based confocal laser scanning microscopy; conditions: 0.5 h
[19] = Drug localization in nucleoli of human HeLa cells using FITC-labeled compound at cytotoxic IC50 level incubated for 30 mins by confocal laser scanning microscopy; type: subcellular; conditions: 0.5 h
HeLa [20] = assay: Induction of oxidative stress in human HeLa cells assessed as increase in reactive oxygen species at cytotoxic IC50 level incubated for 15 mins by CellROX deep red reagent based flow cytometry; type: functional, cell-based
HeLa [21] = assay: Cytotoxicity against human HeLa cells assessed as reduction in cell viability at 4 degC at 1 to 16 uM incubated for 1 hr by MTT assay; type: functional, cell-based
HeLa [22] = assay: Induction of apoptosis in human HeLa cells assessed as increase in caspase 3/7 activity at cytotoxic IC50 level using Ac-DEVD- pNA substrate incubated for 15 to 60 mins; type: functional, cell-based

Substance	Activity [2]	pIC50 (HeLa [1])	Activity (HeLa [3])	Selectivity Index [7]	pIC50 (MCF7)	pIC50 (A549)	Selectivity Index [8]	Selectivity Index [9]	pIC50 (HL-60)	Selectivity Index [10]	Selectivity Index [11]	HC10 [12] [µM]	pIC50 (K562)	further results
H-KLLELLKKLLKLLK-OH	Active	5.28	Active											
H-KLLKLLKKLLKLEK-OH	Not Active	4.66	inactive											
H-KLLKLLKKLLKLLK-OH		5.34	50%	0.37	5.37	5.43	0.14	0.11	5.60	0.21	0.12	0.52	5.85	Drug uptake [4]: Active; Activity (HeLa [5]): Active; Activity (HeLa [6]): Active; Activity [13]: Dose-dependent effect; Activity [14]: Active
H-KKLKLLKKLLKLLK-OH	Not Active	5.47	inactive	15	5.21	5.46	5.53	5.74	5.77	11.5	3.14	19.5	5.89	
H-KLLKLLKKELKLLK-OH	Not Active	< 4.19												
H-KLEKLLKKLLKLLK-OH	Not Active	5.21	inactive											
H-KELKLLKKLLKLLK-OH	Not Active	5.17	inactive	25.7	4.84	4.87	4.58	9.13	5.48	18.7	4.25	61.7	5.62	Activity (HeLa [15]): Active; Activity (HeLa [6]): inactive; Drug uptake [16]: Active; Drug uptake [17]: Active; Drug uptake [18]: Active; Drug uptake [19]: Active; Activity (HeLa [20]): Active; Activity (HeLa [21]): inactive; Activity (HeLa [22]): Active; Activity [14]: Not Active

The next lines start with results.

Activity [2]	Substance	pIC50 (HeLa [1])	Activity (HeLa [3])	Selectivity Index [7]	pIC50 (MCF7)	pIC50 (A549)	Selectivity Index [8]	Selectivity Index [9]	pIC50 (HL-60)	Selectivity Index [10]	Selectivity Index [11]	HC10 [12] [µM]	pIC50 (K562)	further results
Not Active	H-KLLKLEKKLLKLLK-OH	< 4.19												
Not Active	H-KLLKELKKLLKLLK-OH	5.07	inactive											
Not Active	H-KQLKLLKKLLKLLK-OH	5.28	inactive	19.7	5.05	5.20	5.59	6.77	5.70	17.8	3.95	35.5	5.74	
Not Active	H-KLLKLLKKLEKLLK-OH	4.95	inactive											
Not Active	H-KLLKLLKKLLKELK-OH	5.29	inactive											
